From patent publication US20090221522A1, “METHODS TO CORRECT GENE SET EXPRESSION PROFILES TO DRUG SENSITIVITY” (The Johns Hopkins University, priority 2008, published 2009)

System: direct pancreatic cancer xenografts (fine needle aspiration cells)
Assay: Ex vivo perturbability assay, low-density microarray RT-PCR
Type: cell-based
Design: key to RRM1 gene expression / NFKB1 gene expression / BNIP3L gene expression / VHL gene expression / DCK gene expression / HIF1B gene expression / IGF1R gene expression / MAPK1 gene expression / MAP2K2 gene expression / JUN gene expression / IHH gene expression: % of untreated control (treated sample normalized to untreated)
Settings: treated normalized to untreated control
Source text: Direct pancreatic cancer derived xenografts: Resected pancreatic adenocarcinomas are routinely implanted in nude mice at the Johns Hopkins Medical Institutions as a method to obtain enriched populations of neoplastic cells under an IRB-approved protocol from residual pancreatic cancer tumors. Tumor specimens from Whipple resection specimens were divided into 2-3 mm^3 pieces in antibiotic-containing RPMI media. Pieces of non-necrotic tissue were selected and immersed in Matrigel. Under anesthesia with isofluorane, tumors were implanted into five-to-six week-old female athymic (nu/nu) mice purchased from Harlan (Harlan Laboratories, Washington, D.C.). This research protocol was approved by the Johns Hopkins University Animal Use and Care Committee arid animals were maintained in accordance to guidelines of the American Association of Laboratory Animal Care. Tumors were propagated to subsequent cohorts of mice until a sufficient number were available for drug testing.
Fine needle aspiration (FNA): FNAs on mice were performed according to standard cytopathologic practice using 10 cc syringes and 25-gauge needles. The procedure was performed under inhaled general anesthesia with isofluorane. During each FNA procedure the first pass was smeared onto glass slides and used for morphologic analysis and quality control, (DiffQuik™ and Papanicoloau), and the second through sixth passes were used to acquire viable cells.
Ex vivo assay: FNA passes used to acquire viable cells were immediately transferred into 10 ml sterile prewarmed complete RPMI-1640 culture medium containing 10% FBS, penicillin (200 ug/ml), and streptomycin (200 ug/ml). Equivalent aliquots of cells were seeded in two wells of a 6-well polypropylene microplate. […] Following treatment, non-adherent and adherent cells (collected by scraping) were pooled together in a 1.5 mL microcentrifuge tube and centrifuged at 500 g for 5 mm at 4° C. After washing with PBS, cells were lysed in 100 μL of ice-cold RLT.
RNA extraction and cDNA generation: Total RNA was extracted from cells using the RNeasy™ Mini Kit (Qiagen, Valencia, Calif.) following the manufacturer's instructions. cDNA was synthesized using iScript cDNA synthesis kit (Bio-Rad) following the manufacturer's instructions.
Low-density micro arrays (LDMA): The samples were run in a customized assay with a 384-well format (ABI, Foster City, Calif.), where the expression of 45 to 381 relevant genes can be quantitatively tested. For this example, the array was designed with 8 replicated sections containing 48 wells, with primers of one gene per well: 3 housekeeping genes (HK: UBC, HPRT, SDHA), and 45 genes of interest. 50 μL of cDNA plus 50 μL of ABI mastermix were loaded onto each of two contiguous lanes to have duplicated readouts of every sample, and were run by real-time reverse transcriptase PCR (RT-PCR). The amount of change in the target genes was calculated by comparing the threshold cycle (CT) of each gene to the geometric mean of the CTs of the HK genes. Relative expression of the target genes was estimated using the formula: relative expression=2−^ΔCT, where ΔCT=CT (target gene)−CT (average of the 3 HK genes). The experiment was run in duplicate and mean values are analyzed.
Data analysis: The expression level of each gene in the treated sample was normalized to that of the untreated control. A significant change was defined when the gene expression either increases two-fold or more (>200%), or decreases to half or more (<50%). The rest is considered uninformative.

Structure (SMILES): Nc1ccn([C@@H]2O[C@H](CO)[C@@H](O)C2(F)F)c(=O)n1 [gemcitabine]
- AXIN2 gene expression (case #1): 67
- BAX gene expression (case #1): 91
- BNIP3L gene expression (case #1): 109
- BRAF gene expression (case #1): 116
- BRCA1 gene expression (case #1): 81
- CCND1 gene expression (case #1): 127
- CXCR4 gene expression (case #1): 100
- CyclinB1 gene expression (case #1): 68
- DCK gene expression (case #1): 164
- EGFR gene expression (case #1): 124
- ERCC1 gene expression (case #1): 107
- FOS gene expression (case #1): 113
- GADD45A gene expression (case #1): 108
- GLI2 gene expression (case #1): 72
- HIF1A gene expression (case #1): 126
- HIF1B gene expression (case #1): 99
- IGF1R gene expression (case #1): 51
- IGFBP3 gene expression (case #1): 135
- IHH gene expression (case #1): 113
- MAP2K2 gene expression (case #1): 127
- MAPK3 gene expression (case #1): 152
- MDM2 gene expression (case #1): 134
- MSLN gene expression (case #1): 101
- NOTCH1 gene expression (case #1): 158
- NOTCH2 gene expression (case #1): 113
- PLK1 gene expression (case #1): 50
- PSCA gene expression (case #1): 106
- PTCH gene expression (case #1): 81
- SHH gene expression (case #1): 70
- Survivin gene expression (case #1): 81
- TGFA gene expression (case #1): 99
- VEGF gene expression (case #1): 106
- VHL gene expression (case #1): 104
- p21 gene expression (case #1): 96
- AXIN2 gene expression (case #2): 63
- BAX gene expression (case #2): 95
- BNIP3L gene expression (case #2): 96
- BRAF gene expression (case #2): 98
- BRCA1 gene expression (case #2): 63
- CCND1 gene expression (case #2): 128
- CXCR4 gene expression (case #2): 5
- CyclinB1 gene expression (case #2): 99
- DCK gene expression (case #2): 112
- EGFR gene expression (case #2): 101
- ERCC1 gene expression (case #2): 78
- FOS gene expression (case #2): 115
- GADD45A gene expression (case #2): 108
- GLI2 gene expression (case #2): 82
- HIF1A gene expression (case #2): 111
- HIF1B gene expression (case #2): 129
- IGF1R gene expression (case #2): 105
- IGFBP3 gene expression (case #2): 205
- IHH gene expression (case #2): 131
- MAP2K2 gene expression (case #2): 78
- MAPK1 gene expression (case #2): 104
- MAPK3 gene expression (case #2): 71
- MDM2 gene expression (case #2): 92
- MSLN gene expression (case #2): 118
- NFKB1 gene expression (case #2): 138
- NOTCH1 gene expression (case #2): 138
- NOTCH2 gene expression (case #2): 119
- PLK1 gene expression (case #2): 34
- PSCA gene expression (case #2): 127
- PTCH gene expression (case #2): 102
- RRM1 gene expression (case #2): 166
- SHH gene expression (case #2): 108
- Survivin gene expression (case #2): 110
- TGFA gene expression (case #2): 113
- VEGF gene expression (case #2): 101
- VHL gene expression (case #2): 116
- p21 gene expression (case #2): 110
- AXIN2 gene expression (case #3): 44
- BAX gene expression (case #3): 78
- BNIP3L gene expression (case #3): 82
- BRAF gene expression (case #3): 93
- BRCA1 gene expression (case #3): 84
- CCND1 gene expression (case #3): 106
- CXCR4 gene expression (case #3): 43
- CyclinB1 gene expression (case #3): 48
- DCK gene expression (case #3): 80
- EGFR gene expression (case #3): 70
- ERCC1 gene expression (case #3): 88
- FOS gene expression (case #3): 123
- GADD45A gene expression (case #3): 104
- GLI2 gene expression (case #3): 73
- HIF1A gene expression (case #3): 106
- HIF1B gene expression (case #3): 106
- IGF1R gene expression (case #3): 66
- IGFBP3 gene expression (case #3): 49
- IHH gene expression (case #3): 130
- MAP2K2 gene expression (case #3): 106
